Experimental data: patent US6737383B1, “Herbicidal oxadiazolidines” (priority 1999, dated 2004)

Tests used:
wheat = test: Test B pre/postemergence wheat; type: in vivo, Triticum aestivum
How it was run: (§1)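 Herbicidal effect was estimated by eye on a ten-point control scale after plants spent twelve to sixteen days in a greenhouse following soil or foliar treatment. Foliar sprays targeted plants at one to four leaves; all doses were formulated in a non-phytotoxic solvent with surfactant.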

rape = test: Test B pre/postemergence rape; type: in vivo, Brassica napus
How it was run: as §1

corn = test: Test B pre/postemergence corn; type: in vivo, Zea mays
How it was run: as §1

sugar beet = test: Test B pre/postemergence sugar beet; type: in vivo, Beta vulgaris
How it was run: as §1

soybean = test: Test B pre/postemergence soybean; type: in vivo, Glycine max
How it was run: as §1

velvetleaf = test: Test B pre/postemergence velvetleaf; type: in vivo, Abutilon theophrasti
How it was run: as §1

purple nutsedge = test: Test B pre/postemergence purple nutsedge; type: in vivo, Cyperus rotundus
How it was run: as §1

pigweed = test: Test B pre/postemergence pigweed; type: in vivo, Amaranthus retroflexus
How it was run: as §1

bedstraw = test: Test B pre/postemergence bedstraw; type: in vivo, Galium aparine
How it was run: as §1

surinam grass = test: Test B pre/postemergence surinam grass; type: in vivo, Brachiaria decumbens
How it was run: as §1

morningglory = test: Test B pre/postemergence morningglory; type: in vivo, Ipomoea hederacea
How it was run: as §1

giant foxtail = test: Test B pre/postemergence giant foxtail; type: in vivo, Setaria faberii
How it was run: as §1

cocklebur = test: Test B pre/postemergence cocklebur; type: in vivo, Xanthium strumarium
How it was run: as §1

blackgrass = test: Test B pre/postemergence blackgrass; type: in vivo, Alopecurus myosuroides
How it was run: as §1

wild oat = test: Test B pre/postemergence wild oat; type: in vivo, Avena fatua
How it was run: as §1

crabgrass = test: Test B pre/postemergence crabgrass; type: in vivo, Digitaria sanguinalis
How it was run: as §1

[1] = Postemergence, Rate 62 g/ha, scale of 0 to 10, 0 is no effect, 10 is complete control
[2] = Postemergence, Rate 125 g/ha, scale 0 to 10, 0 is no effect, 10 is complete control
[3] = Postemergence, Rate 500 g/ha, scale 0 to 10, 0 is no effect, 10 is complete control
[4] = Preemergence, Rate 62 g/ha, scale of 0 to 10 where 0 is no effect and 10 is complete control
[5] = Preemergence, Rate 125 g/ha, scale 0 to 10, 0 is no effect, 10 is complete control
[6] = Rate 250 g/ha, Postemergence, scale of 0 to 10 where 0 is no effect and 10 is complete control
[7] = Preemergence, Rate 500 g/ha, scale of 0 to 10 where 0 is no effect and 10 is complete control

CC(C)N(C(=O)n1oc(=O)n(CCCC(F)(F)F)c1=O)c1ccc(F)cc1F [Compound 526]
Wheat plant response rating (wheat; [1]): 0
Wheat plant response rating (wheat; [2]): 0
Plant response rating, Wheat (wheat; [3]): 0
Plant response rating, Wheat (wheat; [4]): 0
Wheat plant response rating (wheat; [5]): 0
Wheat plant response rating (0 to 10 scale) (wheat; Preemergence, Rate 250 g/ha): 8
Plant response rating, Wheat (wheat; [6]): 0
Rape plant response rating (rape; [1]): 0
Rape plant response rating (rape; [2]): 4
Plant response rating, Rape (rape; [3]): 4
Plant response rating, Rape (rape; [4]): 4
Rape plant response rating (rape; [5]): 4
Rape plant response rating (0 to 10 scale) (rape; Preemergence, Rate 250 g/ha): 9
Corn plant response rating (corn; [1]): 0
Corn plant response rating (corn; [2]): 2
Plant response rating, Corn (corn; [3]): 2
Plant response rating, Corn (corn; [4]): 0
Corn plant response rating (corn; [5]): 0
Corn plant response rating (0 to 10 scale) (corn; Preemergence, Rate 250 g/ha): 0
Corn plant response rating (corn; [7]): 2
Plant response rating, Corn (corn; [6]): 2
Sugarbeets plant response rating (sugar beet; [1]): 0
Sugarbeets plant response rating (sugar beet; [2]): 0
Plant response rating, Sugarbeets (sugar beet; [3]): 0
Plant response rating, Sugarbeets (sugar beet; [4]): 4
Sugarbeets plant response rating (sugar beet; [5]): 6
Sugarbeets plant response rating (0 to 10 scale) (sugar beet; Preemergence, Rate 250 g/ha): 8
Sugarbeets plant response rating (sugar beet; [7]): 8
Plant response rating, Sugarbeets (sugar beet; [6]): 0
Soybean plant response rating (soybean; [1]): 2
Soybean plant response rating (soybean; [2]): 3
Plant response rating, Soybean (soybean; [3]): 3
Plant response rating, Soybean (soybean; [4]): 0
Soybean plant response rating (soybean; [5]): 0
Soybean plant response rating (0 to 10 scale) (soybean; Preemergence, Rate 250 g/ha): 0
Soybean plant response rating (soybean; [7]): 0
Plant response rating, Soybean (soybean; [6]): 3
Velvetleaf plant response rating (velvetleaf; [1]): 4
Velvetleaf plant response rating (velvetleaf; [2]): 4
Plant response rating, Velvetleaf (velvetleaf; [3]): 8
Plant response rating, Velvetleaf (velvetleaf; [4]): 0
Velvetleaf plant response rating (velvetleaf; [5]): 2
Velvetleaf plant response rating (0 to 10 scale) (velvetleaf; Preemergence, Rate 250 g/ha): 2
Velvetleaf plant response rating (velvetleaf; [7]): 3
Plant response rating, Velvetleaf (velvetleaf; [6]): 7
Nutsedge plant response rating (purple nutsedge; [1]): 0
Nutsedge plant response rating (purple nutsedge; [2]): 0
Plant response rating, Nutsedge (purple nutsedge; [3]): 2
Plant response rating, Nutsedge (purple nutsedge; [4]): 0
Nutsedge plant response rating (purple nutsedge; [5]): 0
Nutsedge plant response rating (0 to 10 scale) (purple nutsedge; Preemergence, Rate 250 g/ha): 0
Nutsedge plant response rating (purple nutsedge; [7]): 0
Plant response rating, Nutsedge (purple nutsedge; [6]): 0
Redroot pigweed plant response rating (pigweed; [1]): 0
Redroot pigweed plant response rating (pigweed; [2]): 0
Plant response rating, Redroot pigweed (pigweed; [3]): 4
Plant response rating, Redroot pigweed (pigweed; [4]): 4
Redroot pigweed plant response rating (pigweed; [5]): 4
Redroot pigweed plant response rating (0 to 10 scale) (pigweed; Preemergence, Rate 250 g/ha): 4
Plant response rating, Redroot pigweed (pigweed; [6]): 2
Plant response rating, Bedstraw (bedstraw; [3]): 9
Plant response rating, Bedstraw (bedstraw; [4]): 0
Bedstraw plant response rating (bedstraw; [5]): 0
Bedstraw plant response rating (0 to 10 scale) (bedstraw; Preemergence, Rate 250 g/ha): 7
B. signalgrass plant response rating (surinam grass; [1]): 0
B. signalgrass plant response rating (surinam grass; [2]): 2
Plant response rating, B. signalgrass (surinam grass; [3]): 6
Plant response rating, B. signalgrass (surinam grass; [4]): 8
B. signalgrass plant response rating (surinam grass; [5]): 9
B. signalgrass plant response rating (0 to 10 scale, 0 is no effect, 10 is complete control) (surinam grass; Preemergence, Rate 250 g/ha): 9
Plant response rating, B. signalgrass (surinam grass; [6]): 4
Morningglory plant response rating (morningglory; [1]): 6
Morningglory plant response rating (morningglory; [2]): 6
Plant response rating, Morningglory (morningglory; [3]): 7
Plant response rating, Morningglory (morningglory; [4]): 0
Morningglory plant response rating (morningglory; [5]): 0
Morningglory plant response rating (0 to 10 scale) (morningglory; Preemergence, Rate 250 g/ha): 0
Morningglory plant response rating (morningglory; [7]): 2
Plant response rating, Morningglory (morningglory; [6]): 6
Giant foxtail plant response rating (giant foxtail; [1]): 3
Giant foxtail plant response rating (giant foxtail; [2]): 3
Plant response rating, Giant foxtail (giant foxtail; [3]): 8
Plant response rating, Giant foxtail (giant foxtail; [4]): 9
Giant foxtail plant response rating (giant foxtail; [5]): 10
Giant foxtail plant response rating (0 to 10 scale) (giant foxtail; Preemergence, Rate 250 g/ha): 10
Giant foxtail plant response rating (giant foxtail; [7]): 10
Plant response rating, Giant foxtail (giant foxtail; [6]): 7
Cocklebur plant response rating (cocklebur; [1]): 0
Cocklebur plant response rating (cocklebur; [2]): 0
Plant response rating, Cocklebur (cocklebur; [3]): 2
Plant response rating, Cocklebur (cocklebur; [4]): 0
Cocklebur plant response rating (cocklebur; [5]): 0
Cocklebur plant response rating (0 to 10 scale) (cocklebur; Preemergence, Rate 250 g/ha): 0
Cocklebur plant response rating (cocklebur; [7]): 0
Plant response rating, Cocklebur (cocklebur; [6]): 0
Blackgrass plant response rating (blackgrass; [1]): 3
Blackgrass plant response rating (blackgrass; [2]): 6
Plant response rating, Blackgrass (blackgrass; [3]): 7
Plant response rating, Blackgrass (blackgrass; [4]): 7
Blackgrass plant response rating (blackgrass; [5]): 9
Blackgrass plant response rating (0 to 10 scale) (blackgrass; Preemergence, Rate 250 g/ha): 10
Plant response rating, Blackgrass (blackgrass; [6]): 9
Wild oats plant response rating (wild oat; [1]): 0
Wild oats plant response rating (wild oat; [2]): 0
Plant response rating, Wild oats (wild oat; [3]): 0
Plant response rating, Wild oats (wild oat; [4]): 7
Wild oats plant response rating (wild oat; [5]): 9
Wild oats plant response rating (0 to 10 scale) (wild oat; Preemergence, Rate 250 g/ha): 9
Plant response rating, Wild oats (wild oat; [6]): 0
Crabgrass plant response rating (crabgrass; [1]): 6
Crabgrass plant response rating (crabgrass; [2]): 9
Plant response rating, Crabgrass (crabgrass; [3]): 10
Plant response rating, Crabgrass (crabgrass; [4]): 9
Crabgrass plant response rating (crabgrass; [5]): 10
Crabgrass plant response rating (0 to 10 scale) (crabgrass; Preemergence, Rate 250 g/ha): 10
Crabgrass plant response rating (crabgrass; [7]): 10
Plant response rating, Crabgrass (crabgrass; [6]): 9
